The supplement of paper PMC11208160

assay: recombinant UMI read abundance after kanamycin selection (control-corrected) (log10(CPM+1)); higher = more efficient recombination; extreme values may be limits of the assay; sequences stand for … in AGTGCAGAGAAAATCGGCCAGTTTTCTCTGCCTGCAGTCCGCATGCCGTGGGACCCCTTGGGTTCTAACCTGTTGCCTAGATTTATGCAGCGGACTGCCTTTCTCCCAAAGTGATAAACCGG…AGGTTGGTTTCACT; site = the 11-nt donor
Method: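 Pooled E. coli donor-specificity screen for the IS621 bridge recombinase. Each library member carries a reprogrammed 11-nt donor and a full-length LE bridge RNA expressed in cis from the natural promoter, with a paired donor-binding loop (8-nt LDG + 4-nt RDG) and a target-binding loop fixed to T5. It is co-electroporated with a T5 target plasmid; recombinase is induced with 0.07 mM IPTG and recombinants are selected on kanamycin. UMIs are counted as CPM, averaged over two biological replicates and corrected by the unselected control. Molecule = full bridge RNA written as DNA, built from the T5 scaffold: LDG = donor specificity nt 1-8, RDG = reverse complement of nt 8-11.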
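Further: IS621 bridge recombinase in Escherichia coli cells against a fixed T5 target plasmid.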

Sequence	recombinant UMI read abundance (log10)
ACACGAACATGGACCGGTTTTCCCGGTAATCCGTATTTGTC (site ACACCAACTGA)	0
ACACGAACATGGACCGGTTTTCCCGGTAATCCGTATTTGTC (site ACACGAACTAA)	1.83
ACACGAACATGGACCGGTTTTCCCGGTAATCCGTATTTGTC (site ACACGAACTCA)	0.338
ACACGAACATGGACCGGTTTTCCCGGTAATCCGTATTTGTC (site ACACGAACTGA)	2.77
ACACGAACATGGACCGGTTTTCCCGGTAATCCGTATTTGTC (site ACACGAACTGC)	0
ACACGAACATGGACCGGTTTTCCCGGTAATCCGTATTTGTC (site ACACGAACTGG)	1.74
ACACGAACATGGACCGGTTTTCCCGGTAATCCGTATTTGTC (site ACACGAACTGT)	1.41
ACACGAACATGGACCGGTTTTCCCGGTAATCCGTATTTGTC (site ACACGAACTTA)	1.96
ACACGAACATGGACCGGTTTTCCCGGTAATCCGTATTTGTC (site ACACGACCTGA)	0
ACACGAACATGGACCGGTTTTCCCGGTAATCCGTATTTGTC (site ACACGAGCTGA)	0
ACACGAACATGGACCGGTTTTCCCGGTAATCCGTATTTGTC (site ACACGATCTGA)	1.55
ACACGAACATGGACCGGTTTTCCCGGTAATCCGTATTTGTC (site ACACGCACTGA)	0
ACACGAACATGGACCGGTTTTCCCGGTAATCCGTATTTGTC (site ACACGGACTGA)	1.61
ACACGAACATGGACCGGTTTTCCCGGTAATCCGTATTTGTC (site ACACGTACTGA)	0
ACACGAACATGGACCGGTTTTCCCGGTAATCCGTATTTGTC (site ACACTAACTGA)	0
ACACGAACATGGACCGGTTTTCCCGGTAATCCGTATTTGTC (site ACAGGAACTGA)	0

Sequence	recombinant UMI read abundance (log10)
ACACGAACATGGACCGGTTTTCCCGGTAATCCGTATTTGTC (site ACATGAACTGA)	0
ACACGAACATGGACCGGTTTTCCCGGTAATCCGTATTTGTC (site ACCCGAACTGA)	0
ACACGAACATGGACCGGTTTTCCCGGTAATCCGTATTTGTC (site ACGCGAACTGA)	0
ACACGAACATGGACCGGTTTTCCCGGTAATCCGTATTTGTC (site ACTCGAACTGA)	0.747
ACACGAACATGGACCGGTTTTCCCGGTAATCCGTATTTGTC (site AGACGAACTGA)	0
ACACGAACATGGACCGGTTTTCCCGGTAATCCGTATTTGTC (site ATACGAACTGA)	0.0105
ACACGAACATGGACCGGTTTTCCCGGTAATCCGTATTTGTC (site CCACGAACTGA)	0.924
ACACGAACATGGACCGGTTTTCCCGGTAATCCGTATTTGTC (site GCACGAACTGA)	0
ACACGAACATGGACCGGTTTTCCCGGTAATCCGTATTTGTC (site TCACGAACTGA)	0
ACACGGACATGGACCGGTTTTCCCGGTAATCCGTATTTGGC (site ACACGGACTGC)	2.58
ACACGTACATGGACCGGTTTTCCCGGTAATCCGTATTTGTC (site ACACGAACTGA)	0
ACACGTACATGGACCGGTTTTCCCGGTAATCCGTATTTGTC (site ACACGCACTGA)	0.199
ACACGTACATGGACCGGTTTTCCCGGTAATCCGTATTTGTC (site ACACGGACTGA)	0
ACACGTACATGGACCGGTTTTCCCGGTAATCCGTATTTGTC (site ACACGTACTGA)	1.49
ACAGACACATGGACCGGTTTTCCCGGTAATCCGTATTTGTC (site ACAGACACTGA)	2.7
ACAGACCCATGGACCGGTTTTCCCGGTAATCCGTATTTGCC (site ACAGACCCTGG)	1.2
